Results taken from paper PMC6436837 (Antiviral research, 2018).
Where two headings read alike, the source gives them in different places.

Assays:
EBOV-GFP [1] = assay: microbe, parasite or virus in culture; type: cell-based, Ebola virus; conditions: for IC50: read-out: IC50 against EBOV-GFP
EBOV-GFP [2] = type: cell-based, Ebola virus
EBOV polymerase complex = type: cell-based, Ebola virus
ISRE promoter [3] = type: cell-based, human
ISRE promoter [4] = type: cell-based, mouse
ZIKV = assay: microbe, parasite or virus in culture; type: cell-based, Zika virus; conditions: read-out: IC50 against ZIKV
VSV-GFP = assay: microbe, parasite or virus in culture; type: cell-based, vesicular stomatitis virus; conditions: read-out: IC50 against VSV-GFP
ISG54, ISG56, and MX1 = type: cell-based, human

SMILES | Effect on cell viability (A549 cells) | Activity against EBOV-GFP (EBOV-GFP [1]) | Reduction of viral titers in cell culture supernatants (EBOV-GFP [2]) [fold] | Activity in EBOV MG assay (EBOV polymerase complex) | IC50 (EBOV-GFP [1]) [nM] | Inhibition of EBOV replication (EBOV-GFP [2]) | Activation of ISRE promoter (ISRE promoter [3]) | ISRE reporter induction in MEFs (ISRE promoter [4]) | IC50 (ZIKV; Zika virus, Vero, 48 h) [nM] | IC50 (EBOV polymerase complex; read-out: IC50 in EBOV MG assay) [nM] | IC50 (EBOV-GFP [1]; Zaire ebolavirus, HeLa, 24 h) [nM] | IC50 (VSV-GFP; Vesicular stomatitis virus, Vero, 21 h) [nM] | ISG54 and ISG56 mRNA response (ISG54, ISG56, and MX1) | IC50 (ZIKV) [nM] | IC50 (VSV-GFP) [nM] | Effect on cell viability (Vero cells)
O=C(N[C@@H]1CCCc2c1[nH]c1ccc(Cl)cc21)c1ccccn1 [GSK983, reference compound] | no effect on cell viability | highly active, even at the lowest concentration tested | > 200 |  |  |  |  |  |  |  |  |  |  |  |  | 
O=C(NC1CCCc2c1[nH]c1ccc(Cl)cc21)c1ccccn1 (stereo not drawn) [SW308] |  |  |  | less active | 1700 | unable to inhibit EBOV virus replication efficiently |  |  |  |  |  |  |  |  |  | 
Cc1c(-c2ccc(-c3ccccc3F)cc2)nc2ccc(F)cc2c1C(=O)O [brequinar, reference compound] |  |  |  |  |  | potently inhibited virus growth | activated the ISRE promoter | not statistically significant compared to DMSO-treated cells | 300 | 100 | 100 | 500 | responded |  |  | 
O=C(NC1CCCc2c1[nH]c1ccc(Cl)cc21)c1ccccn1 (stereo not drawn) [SW835] | no effect on cell viability |  | > 200 | potent activity | ~20 |  | activated the ISRE promoter | not affected in IFNAR knockout cells |  |  |  |  | responded | 40 | 400 | no significant effect on cell viability
